In US12054762B2, “Methods of protein production using anti-senescence compounds” (WYETH LLC, priority 2007, dated 2024):
Read-outs that look alike come from different tables or passages of the source.

What was measured:
[1] = tested on: MYO-29 cell line; assay: Different concentrations of carnosine in 1 L bioreactor culture, MYO-29 cell line; assay type: cell-based
Protocol: Four bioreactors were inoculated with 0.4×10^6 cells/ml with a 1 L working volume of a MYO-29 cell line in a serum free inoculation medium. All the bioreactors were all fed 5% (v/v) of a feed medium on day 7 of the 14-day run. The conditions of the bioreactor were held at a temperature of 37° C., a pH of 7.00, and a dissolved oxygen level at 30% air saturation.
All cells were cultured for four days at which point the temperature was shifted in all of the bioreactors to 31° C. […] All bioreactors were harvested on day 12 of the production run. Samples were taken throughout the run to monitor the progress of the cell culture medium. The controls performed generally as expected, except one control had slightly lower daily viabilities than previously seen.

[2] = tested on: MYO-29 cell line; assay: Carnosine addition to 1 L bioreactor fed-batch culture, MYO-29 cell line; assay type: cell-based; settings: 20 mM carnosine added day 4
Protocol: Five bioreactors were inoculated with 0.9×10^6 cells/ml with a 1 L working volume of a MYO-29 cell line in a serum free inoculation medium. All the bioreactors were fed 5% (v/v) of a feed medium on days 3, 5, 7, and 12 of a 14-day run. A day 10 feed of 5% (v/v) of the feed medium was added to two of the control bioreactors and one containing carnosine. The conditions of the bioreactors were held at a temperature of 37° C., a pH of 7.00, and a dissolved oxygen level at 30% air saturation.
The bioreactors were harvested on day 14 of the production run. Samples were taken throughout the run to monitor the progress of the cell culture medium. The controls performed as expected.

[3] = tested on: human or rodent transformed and neoplastic cells; settings: cited from earlier work
[4] = tested on: Chinese Hamster Ovary (CHO) Cell Line Producing Recombinant TNFR Fusion Protein; assay: Carnosine in 1 L bioreactor culture of cells producing recombinant TNFR fusion protein; assay type: cell-based; settings: 20 mM carnosine added day 2
Protocol: A TNFR fusion protein cell line was cultured in a serum free production medium in a bioreactor with a 1 L working volume. On day 1, the temperature was shifted from 37° C. to 29.5° C., sodium butyrate was added to a final concentration of 1 mM, and HMBA was added to a final concentration of 3 mM. The pH of the bioreactor was held at 6.95 and the dissolved oxygen was at 60% air saturation. On day 2, carnosine was added to the culture to a final concentration of 20 mM. The cells were supplemented with a 5% (v/v) feed medium on days 3, 6, 8, and 10. The cell culture medium was harvested on day 12. Four separate control bioreactors were run in which CHO cells expressing a recombinant TNFR fusion protein were grown under conditions identical to those described above, except that carnosine was not added on day 2. The control data in FIGS. 4-11 is the average of the four control bioreactor runs.

[5] = tested on: human diploid fibroblasts and human fetal lung (primary cell lines); settings: 20 mM in culture media; cited from earlier work
[6] = tested on: MYO-29 cell line; assay: Dish scale carnosine experiments, MYO-29 cell line culture; assay type: cell-based; settings: 10 mM carnosine added to dishes on day 4, 7 or 10; harvested day 12; vs no carnosine
Protocol: A MYO-29 cell line was cultured in a serum free production medium in a bioreactor with a 1 L working volume and was temperature shifted from 37° C. to 31° C. on day 4. The pH of the bioreactor was held at 7.00 and the dissolved oxygen was at 30% air saturation. Cell culture medium was then taken from the bioreactor on day 4, day 7, and day 10 and put into culture dishes with an 8 ml working volume and placed into a 31° C. incubator, where the dish cultures were cultured until day 12. The cells were supplemented with a feed medium on days 5 and 7. On day 5, 10% (v/v) of feed medium was added to the cell cultures and on day 7, 5% (v/v) of feed medium was added to the cell cultures. 10 mM of carnosine was added on day 4, day 7, and day 10, respectively, to the dishes and the cell culture medium was harvested on day 12.

[7] = addition of the chemical agent to cell culture; cited from earlier work
[8] = vs average of 4 control bioreactors

NCCC(=O)N[C@@H](Cc1cnc[nH]1)C(=O)O [carnosine]
high molecular weight aggregates ([1]; 20 mM or 40 mM carnosine added day 4, compared to the controls): decrease | daily titer ([1]; 20 mM or 40 mM carnosine added day 4, compared with one of the controls): similar | daily cell viability upon being harvested ([1]; 20 mM or 40 mM carnosine added day 4, harvest day 12, compared to two control bioreactors): higher viability | daily viable cell density ([1]; 20 mM or 40 mM carnosine added day 4, vs controls): fairly similar with the exception of the bioreactor with 4 mM of carnosine | cumulative specific cellular productivity ([1]; 40 mM carnosine added day 4): higher | daily cell viability upon being harvested ([2]; harvest day 14, compared to bioreactors without carnosine): higher | titer at the time of harvest ([2]; harvest day 14, vs controls): higher titer | cumulative specific cellular productivity ([2]; vs controls): better | high molecular weight aggregates ([2]; vs controls): decrease | cytotoxicity ([3]; Dulbecco's Modified Eagle's Medium (DMEM), contains 1 mM pyruvate): not | cytotoxicity ([3]; Minimal Essential Medium (MEM), lower glucose levels): cytotoxic | amount of misfolded and/or aggregated TNFR fusion protein ([4]; hydrophobic interaction chromatography (HIC), vs controls): significantly reduced | amount of high molecular weight (HMW) aggregates ([4]; size exclusion chromatography (SEC), vs controls): significantly reduced | cell growth (viable cell density) [4, 8]: not significantly affected | cell viability [4, 8]: not significantly affected | glycosylation of the produced TNFR fusion protein (total sialylation, sialylated N-linked oligosaccharides) ([4]; vs controls): not significantly different | product titer ([4]; vs controls): increased | specific cellular productivity ([4]; vs controls): increased | lifespan of cells [5]: extend the lifespan | acidic peaks [6]: decreasing | high molecular weight aggregates [6]: decreasing

CCCC(=O)[O-].[Na+] [sodium butyrate]
cell growth and viable cell number [7]: cell growth ceases and the viable cell number decreases
